The results in this text go back to PMC4980623 (2016).

Test [1] has as its system HTG22 (DNA, G4) AGGGTTAGGGTTAGGGTTAGGG
The test can be described thus: UV-vis absorption titration. The note with it: K+ (100 mM; K+ and Na+ swapped elsewhere in the source), 15 μM compound, 0-60 μM DNA, Tris-HCl.

In test [2] the test system is c-kit 1 (DNA, G4) GGGAGGGCGCTGGGAGGAGGG
In words: FRET melting. The note with it: various concentrations.

Test [3] deals with Hairpin DNA (DNA, hairpin) TTGGCCAATGTTTGGCCAA
The test can be described thus: UV melting, 260 nm. The note with it: 100 mM KCl; DNA:drug 1:10, 3 μM DNA; 20 mM cacodylic acid buffer, pH 7.3.

For test [4], the system named is HTG22 (FRET, FAM/TAMRA) (DNA, G4) AGGGTTAGGGTTAGGGTTAGGG
The test can be described thus: FRET melting. The note with it: 20 μM compound, DNA:drug 1:10.

The test system of test [5] is c-myc (pu27) (DNA, G4) TGGGGAGGGTGGGGAGGGTGGGGAAGG
In words: FRET melting. The settings on record: K+ (100 mM; K+ and Na+ swapped elsewhere in the source); various concentrations.

Test [6] concerns HTG22 (DNA, G4) AGGGTTAGGGTTAGGGTTAGGG
The test can be described thus: CD titration, 285 nm. The note with it: K+ (100 mM; K+ and Na+ swapped elsewhere in the source); 5 μM DNA, Tris-HCl.

Test [7] concerns HTG22 (5'-biotin, SPR) (DNA, G4) AGGGTTAGGGTTAGGGTTAGGG
The test can be described thus: SPR kinetics, bivalent ligand model. The note with it: K+ (100 mM; K+ and Na+ swapped elsewhere in the source), stronger of two sites.

For test [8], the system named is Hairpin DNA (5'-biotin, SPR) (DNA, hairpin) TTGGCCAATGTTTGGCCAA
In words: SPR. For orientation: SPR reads the build-up and loss of mass on a sensor chip optically.

[9] abbreviates: K+ (100 mM; K+ and Na+ swapped elsewhere in the source).
The mark [10] stands for this setting: Na+ (100 mM; K+ and Na+ swapped elsewhere in the source).

As for `C[N+]1(C)CCN(Cc2nc3ccc4c(c3[nH]2)C(=O)c2ccccc2C4=O)CC1`, the binding entry is given as “yes” in test [1] (16.89% hypochromicity, 1 nm red shift); “yes” in test [2] (setting [9]); “no” in test [2] (setting [10]); “no” in test [5]; “yes” in test [6]. Besides, the “Delta Tm” value in test [3] came out at 0.10 °C; in test [4] (setting [9]) it was 8.04 °C; in test [4] (setting [10]), 1.00 °C. In test [7] (Ka1 2.82 × 10^5), the Ka2 worked out at 384000 M⁻¹. Further, in test [8], the Ka is 40000 M⁻¹.
With `CN1CCN(Cc2nc3ccc4c(c3[nH]2)C(=O)c2ccccc2C4=O)CC1`, the binding result in test [1] (16.41% hypochromicity, 3 nm red shift) is given as “yes”; in test [2] (setting [9]) it was “yes”; in test [2] (setting [10]) it was “no”; in test [5] it was “no”; in test [6], “yes”. Further, the “Delta Tm” value was 0.03 °C in test [3], 5.85 °C in test [4] (setting [9]) and 0.55 °C in test [4] (setting [10]). Also, in test [7] (Ka1 1.65 × 10^5), the Ka2 was 169000 M⁻¹. In test [8], this compound had a Ka of 60000 M⁻¹.
